# Measurements from patent US20230085307A1, “PYRIDAZINONE COMPOUND AND HERBICIDE” (NISSAN CHEMICAL CORPORATION, priority 2019, published 2023).
# Assays:
# lambsquarters = assay: Test Example 5: herbicidal effect by foliage application, plastic box (Table 20, symbol O); assay type: in vivo, lambsquarters (Chenopodium album)
# Summary of the method: (§1)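 Plants sown in sterilized diluvial soil and grown 14 days in a greenhouse at 25° C to 30° C, then sprayed on the foliage with the compound's emulsion diluted in water to a predetermined herbicide amount. Injury to weeds and crops scored three weeks after application on a visual rating scale.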
# barnyard grass [1] = assay: Test Example 3: herbicidal effect by foliage application, Wagner pot (Table 18, symbol H); assay type: in vivo, barnyard grass (Echinochloa crus-galli); details: for herbicidal effect on H: barnyard grass: amount of applied herbicide 320 g/ha
# Summary of the method: (§2)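 Plants were sown in alluvial soil held under 0.1–0.5 cm standing water and grown 14 days in a greenhouse at 25–30 °C. An emulsifiable formulation, water-diluted to the set dose, was then sprayed onto the foliage, and effects were scored three weeks later using previously defined criteria.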
# Chinese sprangletop = assay: Test Example 3: herbicidal effect by foliage application, Wagner pot (Table 18, symbol D); assay type: in vivo, chinese sprangletop (Leptochloa chinensis); details: for herbicidal effect on D: Chinese sprangletop: amount of applied herbicide 320 g/ha
# Summary of the method: as §2
# wild oat = assay: Test Example 5: herbicidal effect by foliage application, plastic box (Table 20, symbol I); assay type: in vivo, wild oat (Avena fatua)
# Summary of the method: as §1
# velvetleaf = assay: Test Example 5: herbicidal effect by foliage application, plastic box (Table 20, symbol M); assay type: in vivo, velvetleaf (Abutilon theophrasti)
# Summary of the method: as §1
# chickweed = assay: Test Example 5: herbicidal effect by foliage application, plastic box (Table 20, symbol P); assay type: in vivo, common chickweed (Stellaria media)
# Excerpt: [Test Example 5] Herbicidal Effect Test by Foliage Application
# Sterilized diluvial soil was placed in a plastic box having a length of 21 cm, a width of 13 cm, and a depth of 7 cm. The seeds of each of southern crabgrass, green foxtail, barnyard grass, wild oat, blackgrass, Italian ryegrass, windgrass, velvetleaf, redroot pigweed, lambsquarters, chickweed, false cleavers, persian speedwell, corn, soybean, rice, wheat, beet, and rapeseed were sowed in a spot-like manner and covered with the soil having a thickness of about 1.5 cm. Thereafter, the plants were grown in a greenhouse at 25° C. to 30° C. After 14-day growth of the plants, the emulsion agent of the compound of the present invention prepared according to Formulation Example 2 was diluted with water so as to achieve a predetermined herbicide amount, and the diluted emulsion agent was uniformly applied to a foliage part with a small-sized spray. Three weeks after the herbicide application, the effect of the herbicide on each plant was evaluated according to the criteria of Test Example 1.
# southern crabgrass = assay: Test Example 5: herbicidal effect by foliage application, plastic box (Table 20, symbol F); assay type: in vivo, southern crabgrass (Digitaria ciliaris)
# Summary of the method: as §1
# barnyard grass [2] = assay: Test Example 5: herbicidal effect by foliage application, plastic box (Table 20, symbol H); assay type: in vivo, barnyard grass (Echinochloa crus-galli)
# Summary of the method: as §1
# persian speedwell = assay: Test Example 5: herbicidal effect by foliage application, plastic box (Table 20, symbol R); assay type: in vivo, Persian speedwell (Veronica persica)
# Summary of the method: as §1
# windgrass = assay: Test Example 5: herbicidal effect by foliage application, plastic box (Table 20, symbol L); assay type: in vivo, windgrass (Apera spica-venti)
# Summary of the method: as §1
# redroot pigweed = assay: Test Example 5: herbicidal effect by foliage application, plastic box (Table 20, symbol N); assay type: in vivo, redroot pigweed (Amaranthus retroflexus)
# Summary of the method: as §1
# Italian ryegrass = assay: Test Example 5: herbicidal effect by foliage application, plastic box (Table 20, symbol K); assay type: in vivo, Italian ryegrass (Lolium multiflorum)
# Summary of the method: as §1
# blackgrass = assay: Test Example 5: herbicidal effect by foliage application, plastic box (Table 20, symbol J); assay type: in vivo, blackgrass (Alopecurus myosuroides)
# Summary of the method: as §1
# rice flat sedge = assay: Test Example 3: herbicidal effect by foliage application, Wagner pot (Table 18, symbol E); assay type: in vivo, rice flat sedge (Cyperus iria); details: for herbicidal effect on E: rice flat sedge: amount of applied herbicide 320 g/ha
# Summary of the method: as §2
# green foxtail = assay: Test Example 5: herbicidal effect by foliage application, plastic box (Table 20, symbol G); assay type: in vivo, green foxtail (Setaria viridis)
# Summary of the method: as §1
# [3] = foliage application, AAH 320 g/ha, evaluated three weeks after application
# [4] = foliage application, 320 g/ha, three weeks after application
# [5] = foliage application, AAH 320 g/ha, three weeks after application
# [6] = amount of applied herbicide 320 g/ha, foliage application after 14-day growth, evaluated three weeks after application
# [7] = foliage application, 320 g/ha, evaluated three weeks after application
smiles,measurement,setting,value
CC(=O)COc1c(C)nn(C)c(=O)c1-c1c(-c2ccc(OC(F)F)cc2)sc2ccc(F)cc12 [2-304],"O: lambsquarters, herbicidal effect (criteria 0-5)",lambsquarters; [3],3 (Herbicidal rate of 40% or more and less than 70%)
same,herbicidal effect on H: barnyard grass,barnyard grass [1],3 (Herbicidal rate of 40% or more and less than 70%)
same,herbicidal effect on D: Chinese sprangletop,Chinese sprangletop,3 (Herbicidal rate of 40% or more and less than 70%)
same,"I: wild oat, herbicidal effect (criteria 0-5)",wild oat; [3],0 (Herbicidal rate of 5% or less (almost no effect))
same,"M: velvetleaf, herbicidal effect (criteria 0-5)",velvetleaf; [3],0 (Herbicidal rate of 5% or less (almost no effect))
same,"P: chickweed, herbicidal effect (criteria 0-5)",chickweed; [3],5 (Herbicidal rate of 90% or more (almost completely withered))
same,"F: southern crabgrass, herbicidal effect (criteria 0-5)",southern crabgrass; [3],0 (Herbicidal rate of 5% or less (almost no effect))
same,"H: barnyard grass, herbicidal effect (criteria 0-5)",barnyard grass [2]; [3],0 (Herbicidal rate of 5% or less (almost no effect))
same,"R: persian speedwell, herbicidal effect (criteria 0-5)",persian speedwell; [3],5 (Herbicidal rate of 90% or more (almost completely withered))
same,"L: windgrass, herbicidal effect (criteria 0-5)",windgrass; [3],0 (Herbicidal rate of 5% or less (almost no effect))
same,"N: redroot pigweed, herbicidal effect (criteria 0-5)",redroot pigweed; [3],5 (Herbicidal rate of 90% or more (almost completely withered))
same,"K: Italian ryegrass, herbicidal effect (criteria 0-5)",Italian ryegrass; [3],0 (Herbicidal rate of 5% or less (almost no effect))
same,"J: blackgrass, herbicidal effect (criteria 0-5)",blackgrass; [3],0 (Herbicidal rate of 5% or less (almost no effect))
same,herbicidal effect on E: rice flat sedge,rice flat sedge,3 (Herbicidal rate of 40% or more and less than 70%)
same,"G: green foxtail, herbicidal effect (criteria 0-5)",green foxtail; [3],0 (Herbicidal rate of 5% or less (almost no effect))
COc1ccccc1-c1sc2ccc(F)cc2c1-c1c(O)c(C)nn(Cc2ccccc2)c1=O [2-438],"O: lambsquarters, herbicidal effect grade",lambsquarters; [4],0 (Herbicidal rate of 5% or less (almost no effect))
same,herbicidal effect on H: barnyard grass,barnyard grass [1],2 (Herbicidal rate of 20% or more and less than 40%)
same,herbicidal effect on D: Chinese sprangletop,Chinese sprangletop,0 (Herbicidal rate of 5% or less (almost no effect))
same,"I: wild oat, herbicidal effect grade",wild oat; [4],0 (Herbicidal rate of 5% or less (almost no effect))
same,"M: velvetleaf, herbicidal effect grade",velvetleaf; [4],0 (Herbicidal rate of 5% or less (almost no effect))
same,"P: chickweed, herbicidal effect grade",chickweed; [4],0 (Herbicidal rate of 5% or less (almost no effect))
same,"F: southern crabgrass, herbicidal effect grade",southern crabgrass; [4],0 (Herbicidal rate of 5% or less (almost no effect))
same,"H: barnyard grass, herbicidal effect grade",barnyard grass [2]; [4],0 (Herbicidal rate of 5% or less (almost no effect))
same,"R: persian speedwell, herbicidal effect grade",persian speedwell; [4],0 (Herbicidal rate of 5% or less (almost no effect))
same,"L: windgrass, herbicidal effect grade",windgrass; [4],0 (Herbicidal rate of 5% or less (almost no effect))
same,"N: redroot pigweed, herbicidal effect grade",redroot pigweed; [4],3 (Herbicidal rate of 40% or more and less than 70%)
same,"K: Italian ryegrass, herbicidal effect grade",Italian ryegrass; [4],0 (Herbicidal rate of 5% or less (almost no effect))
same,"J: blackgrass, herbicidal effect grade",blackgrass; [4],0 (Herbicidal rate of 5% or less (almost no effect))
same,herbicidal effect on E: rice flat sedge,rice flat sedge,2 (Herbicidal rate of 20% or more and less than 40%)
same,"G: green foxtail, herbicidal effect grade",green foxtail; [4],0 (Herbicidal rate of 5% or less (almost no effect))
COc1nn(C)c(=O)c(-c2c(-c3cccc(OC(F)(F)F)c3)sc3ccccc23)c1O [1-160],"O: lambsquarters, herbicidal effect",lambsquarters; [5],1 (Herbicidal rate of 5% or more and less than 20%)
same,"herbicidal effect on H (barnyard grass), rating 0-5",barnyard grass [1]; 320 g/ha,0 (Herbicidal rate of 5% or less (almost no effect))
same,"herbicidal effect on D (Chinese sprangletop), rating 0-5",Chinese sprangletop; 320 g/ha,1 (Herbicidal rate of 5% or more and less than 20%)
same,"I: wild oat, herbicidal effect",wild oat; [5],0 (Herbicidal rate of 5% or less (almost no effect))
same,"M: velvetleaf, herbicidal effect",velvetleaf; [5],1 (Herbicidal rate of 5% or more and less than 20%)
same,"P: chickweed, herbicidal effect",chickweed; [5],4 (Herbicidal rate of 70% or more and less than 90%)
same,"F: southern crabgrass, herbicidal effect",southern crabgrass; [5],0 (Herbicidal rate of 5% or less (almost no effect))
same,"H: barnyard grass, herbicidal effect",barnyard grass [2]; [5],1 (Herbicidal rate of 5% or more and less than 20%)
same,"R: persian speedwell, herbicidal effect",persian speedwell; [5],0 (Herbicidal rate of 5% or less (almost no effect))
same,"L: windgrass, herbicidal effect",windgrass; [5],0 (Herbicidal rate of 5% or less (almost no effect))
same,"N: redroot pigweed, herbicidal effect",redroot pigweed; [5],5 (Herbicidal rate of 90% or more (almost completely withered))
same,"K: Italian ryegrass, herbicidal effect",Italian ryegrass; [5],1 (Herbicidal rate of 5% or more and less than 20%)
same,"J: blackgrass, herbicidal effect",blackgrass; [5],0 (Herbicidal rate of 5% or less (almost no effect))
same,"herbicidal effect on E (rice flat sedge), rating 0-5",rice flat sedge; 320 g/ha,4 (Herbicidal rate of 70% or more and less than 90%)
same,"G: green foxtail, herbicidal effect",green foxtail; [5],1 (Herbicidal rate of 5% or more and less than 20%)
CCCC(=O)Oc1c(C)nn(C)c(=O)c1-c1c(-c2cccc3c2OCC3)sc2c(Cl)cccc12 [4-099],"Herbicidal effect by foliage application, O: lambsquarters",lambsquarters; [6],0 (Herbicidal rate of 5% or less (almost no effect))
same,herbicidal effect on barnyard grass (H),barnyard grass [1]; 320 g/ha,5 (Herbicidal rate of 90% or more (almost completely withered))
same,herbicidal effect on Chinese sprangletop (D),Chinese sprangletop; 320 g/ha,5 (Herbicidal rate of 90% or more (almost completely withered))
same,"Herbicidal effect by foliage application, I: wild oat",wild oat; [6],0 (Herbicidal rate of 5% or less (almost no effect))
same,"Herbicidal effect by foliage application, M: velvetleaf",velvetleaf; [6],1 (Herbicidal rate of 5% or more and less than 20%)
same,"Herbicidal effect by foliage application, P: chickweed",chickweed; [6],1 (Herbicidal rate of 5% or more and less than 20%)
same,"Herbicidal effect by foliage application, F: southern crabgrass",southern crabgrass; [6],0 (Herbicidal rate of 5% or less (almost no effect))
same,"Herbicidal effect by foliage application, H: barnyard grass",barnyard grass [2]; [6],0 (Herbicidal rate of 5% or less (almost no effect))
same,"Herbicidal effect by foliage application, R: persian speedwell",persian speedwell; [6],4 (Herbicidal rate of 70% or more and less than 90%)
same,"Herbicidal effect by foliage application, L: windgrass",windgrass; [6],0 (Herbicidal rate of 5% or less (almost no effect))
same,"Herbicidal effect by foliage application, N: redroot pigweed",redroot pigweed; [6],2 (Herbicidal rate of 20% or more and less than 40%)
same,"Herbicidal effect by foliage application, K: Italian ryegrass",Italian ryegrass; [6],0 (Herbicidal rate of 5% or less (almost no effect))
same,"Herbicidal effect by foliage application, J: blackgrass",blackgrass; [6],0 (Herbicidal rate of 5% or less (almost no effect))
same,herbicidal effect on rice flat sedge (E),rice flat sedge; 320 g/ha,4 (Herbicidal rate of 70% or more and less than 90%)
same,"Herbicidal effect by foliage application, G: green foxtail",green foxtail; [6],0 (Herbicidal rate of 5% or less (almost no effect))
CCCC(=O)Oc1c(C)nn(C)c(=O)c1-c1c(-c2ccc(F)cc2OC)sc2ccc(-c3ccc(OC(C)C)cc3)cc12 [2-169],herbicidal effect on O: lambsquarters (criteria 0-5),lambsquarters; [7],3 (Herbicidal rate of 40% or more and less than 70%)
same,herbicidal effect on I: wild oat (criteria 0-5),wild oat; [7],0 (Herbicidal rate of 5% or less (almost no effect))
same,herbicidal effect on M: velvetleaf (criteria 0-5),velvetleaf; [7],0 (Herbicidal rate of 5% or less (almost no effect))
same,herbicidal effect on P: chickweed (criteria 0-5),chickweed; [7],0 (Herbicidal rate of 5% or less (almost no effect))
same,herbicidal effect on F: southern crabgrass (criteria 0-5),southern crabgrass; [7],0 (Herbicidal rate of 5% or less (almost no effect))
same,herbicidal effect on H: barnyard grass (criteria 0-5),barnyard grass [2]; [7],0 (Herbicidal rate of 5% or less (almost no effect))
same,herbicidal effect on R: persian speedwell (criteria 0-5),persian speedwell; [7],0 (Herbicidal rate of 5% or less (almost no effect))
same,herbicidal effect on L: windgrass (criteria 0-5),windgrass; [7],0 (Herbicidal rate of 5% or less (almost no effect))
same,herbicidal effect on N: redroot pigweed (criteria 0-5),redroot pigweed; [7],2 (Herbicidal rate of 20% or more and less than 40%)
same,herbicidal effect on K: Italian ryegrass (criteria 0-5),Italian ryegrass; [7],0 (Herbicidal rate of 5% or less (almost no effect))
same,herbicidal effect on J: blackgrass (criteria 0-5),blackgrass; [7],0 (Herbicidal rate of 5% or less (almost no effect))
same,herbicidal effect on G: green foxtail (criteria 0-5),green foxtail; [7],0 (Herbicidal rate of 5% or less (almost no effect))
